Laboratory results taken from patent publication US5677297A, “Benzazepine-, benzoxazepine- and benzothiazepine-n-acetic acid derivatives, process for their preparation and pharmaceutical compositions containing them” (Solvay Pharmaceuticals GmbH, priority 1995, dated 1997).

What was measured:
[1] = molecular target: neutral endopeptidase (NEP), purified NEP (E.C.3.4.24.11) (Homo sapiens, UniProt P08473); experiment: In vitro investigation of the NEP-inhibitory effect (hydrolytic degradation of met-enkephalin); assay type: biochemical; details: substrate met-enkephalin, 37° C., pH 7.4
Protocol: 2. In vitro investigation of the NEP-inhibitory effect of the substances and determination of the affinity of the substance molecules for the enzyme molecule. […] The Ki (inhibitor constant) of each substance was determined as a measure of its inhibitory activity. The Ki of a test substance with enzyme-inhibiting activity is the dissociation constant for the enzyme/test substance complex or the (enzyme/substrate)--test substance complex and has units of concentration.
To carry out the test, respective 100 μl samples of various incubation solutions containing 10 ng of purified NEP (E.C.3.4.24.11) and in each case different amounts of test substance and of substrate (met-enkephalin)and 50 mM tris buffer (=tris(hydroxymethyl)aminomethane/HCl, pH 7.4) were prepared.
For each test substance, 24 different incubation solutions were prepared with 3 different test substance concentrations respectively combined with met-enkephalin contents of 2, 5, 7, 10, 12, 15, 40 and 100 μm.
In each test, two types of control incubation solutions were also processed, on the one hand enzyme controls which contain no test substance, and on the other hand substrate controls which contain neither enzyme nor test substance.
The incubation solutions were incubated in a shaking water bath at 37° C. for 45 minutes. The enzyme reaction was started after 15 minutes by adding the substrate (metenkephalin) and was stopped at the end of the incubation time by heating at 95° C. for 5 minutes. The stopped incubation solution was then centrifuged at 12,000×g for 3 minutes, and the concentrations of unreacted substrate and of hydrolysis products formed by the enzymatic reaction were determined in the supernatant. For this purpose, samples of each of the respective supernatants were fractionated by HPLC (high-pressure liquid chromatography) on hydrophobized silica gel, and the products of the enzymatic reaction and unreacted substrate were determined by photometry at a wavelength of 205 nm. The HPLC separation was carried out using a column (4.6×250 mm) which contains Encapharm™ 100 RP18 having an average particle size of 5 μm as reversed phase separation material. The solvent flow rate was 1.4 ml/min, and the column was warmed to 40° C. Mobile phase A was 5 mM H3 PO4, pH 2.5, and mobile phase B was acetonitrile +1% 5 mM H3 PO4, pH 2.5.
The Ki for each test substance was calculated in a known manner from the concentrations of hydrolysis products and unreacted substrate measured in the various samples. […] The example numbers indicated in Table B refer to the following preparation examples.

[2] = In vivo determination of the effect on diuresis/natriuresis in volume-loaded rats; parameters: species or system rat (male Wistar); details: urine collected over 60 min
Protocol: 4. In vivo determination of the effect of the substances on diuresis/natriuresis in volume-loaded rats.
The in vivo activity was investigated in volume-loaded rats. In this experiment a high cardiac filling pressure was caused by infusion of isotonic sodium chloride solution, which results in ANP release and thus diuresis/natriuresis.
The tests are carried out with male Wistar rats having a body weight of 200-400 g. Under neuroleptanalgesia (fentanyl; Hypnorm™, manufactured by Janssen), a catheter was placed in the right femoral vein for the baseline infusion and the volume loading with isotonic sodium chloride solution. After the abdominal cavity had been opened, a second catheter was inserted into the bladder, and the urethra was tied off so that it was possible to measure the urine volume, natriuresis and kaliuresis.
The abdominal cavity was closed again and the animals received a continuous infusion with sodium chloride solution (0.5 ml/100 g body weight) throughout the 2 hours of the test. After an equilibration period of 30 minutes, in a preliminary phase before the test substance was given, urine samples were collected three times over a period of 10 minutes in each case. These preliminary values ("predrug" values) were determined in order to check that there was a continuous flow of urine in the test animals.
The solutions containing test substances were then administered intravenously (bolus injection into the femoral vein) or orally (by gavage) to groups of 10 rats each. With both modes of administration, in each case one control group of animals received only placebo solutions which contained no active substance. 5 Minutes after i.v. administration or 120 minutes after oral administration of the substances, the rats were loaded with an increased volume of sodium chloride solution i.v. (2 ml/100 g body weight in 2 minutes) and the urine was collected over a period of 60 min. The amounts of urine produced in this period were determined, and the sodium and potassium contents therein were measured. The increase in excretion which took place under volume loading by comparison with the preliminary values was deduced from the resulting amounts of urine.
Furthermore, the amounts of sodium and potassium excreted under volume loading after administration of test substance are also indicated as a percentage of the amounts of sodium and potassium excreted under volume loading after placebo administration.

neutral endopeptidase (NEP), purified NEP (E.C.3.4.24.11), sequence (P08473 whole entry): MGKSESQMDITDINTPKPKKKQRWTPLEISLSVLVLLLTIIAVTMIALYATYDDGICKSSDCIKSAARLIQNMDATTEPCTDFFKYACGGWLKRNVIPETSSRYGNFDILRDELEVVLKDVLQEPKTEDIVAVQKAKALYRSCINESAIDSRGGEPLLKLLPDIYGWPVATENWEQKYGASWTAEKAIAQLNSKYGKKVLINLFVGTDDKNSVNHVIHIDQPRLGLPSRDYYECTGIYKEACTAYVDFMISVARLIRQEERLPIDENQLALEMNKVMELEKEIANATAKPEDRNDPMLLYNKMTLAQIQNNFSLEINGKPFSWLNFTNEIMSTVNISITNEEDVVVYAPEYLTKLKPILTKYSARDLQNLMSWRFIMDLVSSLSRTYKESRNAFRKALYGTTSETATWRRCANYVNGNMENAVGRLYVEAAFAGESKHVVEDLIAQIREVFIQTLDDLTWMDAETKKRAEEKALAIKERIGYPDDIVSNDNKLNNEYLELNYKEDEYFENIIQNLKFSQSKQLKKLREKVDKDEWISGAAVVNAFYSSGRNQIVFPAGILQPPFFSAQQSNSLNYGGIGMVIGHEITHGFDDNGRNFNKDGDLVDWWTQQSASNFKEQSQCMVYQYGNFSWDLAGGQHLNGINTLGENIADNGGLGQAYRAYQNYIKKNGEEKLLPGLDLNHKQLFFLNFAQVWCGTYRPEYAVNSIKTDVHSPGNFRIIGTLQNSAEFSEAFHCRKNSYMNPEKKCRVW

In the case of `O=C(O)CN1C(=O)[C@@H](NC(=O)C2(C[C@@H](CCc3ccccc3)C(=O)O)CCCC2)CCc2ccccc21` [Example 8, (3S,2'R)-3-[1-(2'-Carboxy-4'-phenylbutyl)cyclopentane-1-carbonylamino]-2,3,4,5-tetrahydro-2-oxo-1H-1-benzazepine-1-acetic acid], the Ki [1] is reported as 0.4 nM, the “Increase in the excretion of urine under volume loading after administration of test substance as % based on the increase after placebo administration” value ([2]; 0.1 mg/kg i.v.) is reported as 123.5% and the “Increase in the excretion of urine under volume loading after administration of test substance as % based on the increase after placebo administration” value ([2]; 1.0 mg/kg i.v.) is reported as 153.7%. The “K excretion under volume loading, amount excreted after administration of test substance as % of the amount excreted after placebo administration” value ([2]; 0.1 mg/kg i.v.) was 80.8%, the “K excretion under volume loading, amount excreted after administration of test substance as % of the amount excreted after placebo administration” value ([2]; 1.0 mg/kg i.v.) was 121.8% and the “Na excretion under volume loading, amount excreted after administration of test substance as % of the amount excreted after placebo administration” value ([2]; 0.1 mg/kg i.v.) was 160.9%. For the same compound, the “Na excretion under volume loading, amount excreted after administration of test substance as % of the amount excreted after placebo administration” value ([2]; 1.0 mg/kg i.v.) was 230.4%.
